Laboratory results taken from patent publication US11834414B2, “1-methyl-4-[(4-phenylphenyl)sulfonylmethyl]cyclohexyanol and 1-methyl-4-[[4-(2-pyridyl)phenyl]sulfonylmethyl]cyclohexanol compounds and their therapeutic use” (Modern Biosciences Limited, priority 2018, dated 2023).
In brackets after ≈: the same amount, converted by molar mass.

Experiments:
[1] = Aqueous solubility in FaSSIF; format: physicochemical; settings: pH 6.5, three replicates; for solubility at 16 h: kinetic from dmso stock
Description: Aqueous solubility was measured by equilibration of compounds with fasted state simulated intestinal fluid (FaSSIF) and quantified spectrophotometrically.
Preparation of blank FaSSIF: 0.21 g of sodium hydroxide (NaOH) pellets, 1.97 g of dihydrogen sodium phosphate (NaH2PO4.2H2O) and 3.09 g of sodium chloride (NaCl) were dissolved in 400 mL of deionised water. The pH was adjusted to 6.5 using 1 M hydrochloric acid and further deionised water added to a final volume of 500 mL.
Preparation of FaSSIF: 0.056 g of SIF Powder (containing sodium taurocholate and lecithin) (Phares AG) was dissolved in 25 mL of blank FaSSIF and stirred until the powder was completely dissolved. The solution was allowed to stand for 2 hours during which it became opalescent; it was used within 24 hours. The final solution composition was characterised as follows: • Sodium taurocholate: 3 mM • Lecithin: 0.75 mM • Osmolarity: 270±10 mOsmol • pH: 6.5
The optical density was measured at the end of the incubation period for test compounds and a reference used to determine solubility. In brief, two samples were prepared for each determination: a reference sample consisting of a stock solution of test compound in DMSO diluted in system solution (a phosphate free, low absorption buffer) and propanol; and a test sample (prepared in triplicate) consisting of 0.5 mL FaSSIF spiked with test compound at 0.2 mM. Each sample was incubated at room temperature for 16 hours with constant shaking at 250 rpm. At the end of the incubation period, 0.3 mL of each sample was filtered through a pION filter plate (PION, Woburn MA), diluted 1:1 with propanol and scanned using UV spectrophotometry at λmax ([…]) using a Spectra Max Plus—Version 2.1000 (Molecular Devices, Sunnyvale, CA), with pSOL Explorer solubility determination software (pION, Woburn, MA).
FaSSIF solubility was calculated using the following formula:
[formula] • wherein: • “OD” is the optical density; • “Cr” is the concentration of the reference (33.4 μM); and • “molecular weight” is for the test compound (e.g., 381.44 for ABD735).

hERG ion channel = hERG ion channel (Homo sapiens (Human), UniProt Q12809); assay: hERG Ion Channel Assay; format: cell-based; settings: for hERG cardiac safety profile (in words): compared to reference compounds such as ABD599 and ABD899; for IC50: hERG ion channel activity, hERG-CHO cells
Description: When the ability of hERG to conduct electrical current across the cell membrane is inhibited or compromised, it can result in a potentially fatal disorder called long QT syndrome. This association between hERG and long QT syndrome has made hERG inhibition an important anti-target that must be avoided during drug development.
The activity of the compounds against the hERG ion channel was tested using two approaches: a binding assay and an automated patch-clamp, Q-patch method using stably transfected Chinese Hamster Ovary cells (hERG-CHO). hERG-CHO cells were cultured in F-12 Kaighn's Nutrient Mixture medium (Invitrogen)+10% FBS at 37° C. for 1-3 days. Cells were kept at 30° C. for 24 to 48 hours prior to patch clamping in order to increase the hERG current amplitude. Subsequently, the cells were harvested by trypsinisation, and kept in Serum Free Medium (SFM) in the Q-patch cell preparation state for up to 6 hours at room temperature before being washed and re-suspended in extracellular solution and applied to the patch clamp sites for data recording.
Patch-clamp voltage protocol: After whole cell configuration was achieved, the cell was held at −80 mV. A 50 millisecond pulse to −40 mV was delivered to measure the leaking current, which was subtracted from the tail current on-line. Then the cell was depolarized to +20 mV for 2 seconds, followed by a one second pulse to −40 mV to reveal hERG tail current. This paradigm was delivered once every 5 seconds to monitor the current amplitude.
Extracellular solution: 137 mM NaCl, 4 mM KCl, 1.8 mM CaCl2), 1 mM MgCl2, 10 mM D(+)-glucose, 10 mM HEPES buffer (pH adjusted to 7.4 with NaOH).
After the whole cell configuration was achieved, the extracellular solution (control) was applied first and the cell was stabilized for 2 minutes in extracellular solution. The test compound was then applied from low concentrations to high concentrations cumulatively. The cell was incubated with each test concentration for 5 minutes. During each incubation, the cell was repetitively stimulated using the voltage protocol described above, and the tail current amplitude was continuously monitored.
Acceptance Criteria: • (1) Peak tail current >100 pA in control. • (2) Initial run-down <30% and the run-down stops before first application of the test compound. • (3) Leak currents <50% of the control peak tail currents at any time. • (4) rs<20 MΩ throughout the experiment.
The degree of inhibition (%) was obtained by measuring the tail current amplitude, induced by a one second test pulse to −40 mV after a two second pulse to +20 mV, before and after incubation with the test compound. The difference in current was normalized to control and multiplied by 100 in order to obtain the percent inhibition.
Concentration (log) response curves were fitted to a logistic equation (three parameters assuming complete block of the current at very high test compound concentrations) to generate estimates of the 50% inhibitory concentration (IC50). The concentration-response relationship of each compound was constructed from the percentage reductions of current amplitude by sequential concentrations.

CYP2C9 = CYP2C9 (Homo sapiens (Human), UniProt P11712); assay: Human Cytochrome P450 Inhibition Assay (Bactosomes); format: in vitro ADME; settings: recombinant Bactosomes, 10 minutes, 37° C.
CYP2D6 = CYP2D6 (Homo sapiens (Human), UniProt P10635); assay: as above; format: in vitro ADME; settings: recombinant Bactosomes, 10 minutes, 37° C.
CYP3A4 = CYP3A4 (Homo sapiens (Human), UniProt P08684); assay: as above; format: in vitro ADME; settings: recombinant Bactosomes, 10 minutes, 37° C.
Sequence of CYP3A4 (P08684 whole entry): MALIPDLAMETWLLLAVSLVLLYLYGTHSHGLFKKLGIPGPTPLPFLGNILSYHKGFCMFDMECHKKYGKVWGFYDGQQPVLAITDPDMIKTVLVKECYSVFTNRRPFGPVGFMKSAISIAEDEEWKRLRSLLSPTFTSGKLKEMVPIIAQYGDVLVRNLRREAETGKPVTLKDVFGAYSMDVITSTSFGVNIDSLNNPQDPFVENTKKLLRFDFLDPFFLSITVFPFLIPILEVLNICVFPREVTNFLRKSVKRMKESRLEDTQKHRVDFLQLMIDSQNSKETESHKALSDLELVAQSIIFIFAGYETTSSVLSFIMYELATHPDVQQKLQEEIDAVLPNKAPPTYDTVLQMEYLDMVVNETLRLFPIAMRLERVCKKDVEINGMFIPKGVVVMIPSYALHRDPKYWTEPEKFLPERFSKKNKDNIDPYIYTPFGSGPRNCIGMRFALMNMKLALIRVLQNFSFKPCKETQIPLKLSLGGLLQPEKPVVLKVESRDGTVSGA

Sequence of CYP2D6 (P10635 whole entry): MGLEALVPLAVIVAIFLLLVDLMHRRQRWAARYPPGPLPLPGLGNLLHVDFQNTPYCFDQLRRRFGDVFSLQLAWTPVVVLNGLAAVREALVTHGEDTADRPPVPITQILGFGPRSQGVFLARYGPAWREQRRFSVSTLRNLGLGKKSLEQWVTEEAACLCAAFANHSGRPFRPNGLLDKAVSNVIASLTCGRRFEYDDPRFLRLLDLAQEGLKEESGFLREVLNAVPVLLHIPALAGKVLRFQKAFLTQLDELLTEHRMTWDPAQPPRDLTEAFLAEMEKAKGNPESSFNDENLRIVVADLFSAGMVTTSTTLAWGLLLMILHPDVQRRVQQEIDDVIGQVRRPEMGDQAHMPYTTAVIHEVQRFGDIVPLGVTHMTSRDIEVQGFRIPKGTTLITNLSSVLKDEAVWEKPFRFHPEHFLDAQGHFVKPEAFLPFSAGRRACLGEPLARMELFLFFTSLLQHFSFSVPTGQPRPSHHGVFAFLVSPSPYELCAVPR
Sequence of hERG ion channel (Q12809 whole entry): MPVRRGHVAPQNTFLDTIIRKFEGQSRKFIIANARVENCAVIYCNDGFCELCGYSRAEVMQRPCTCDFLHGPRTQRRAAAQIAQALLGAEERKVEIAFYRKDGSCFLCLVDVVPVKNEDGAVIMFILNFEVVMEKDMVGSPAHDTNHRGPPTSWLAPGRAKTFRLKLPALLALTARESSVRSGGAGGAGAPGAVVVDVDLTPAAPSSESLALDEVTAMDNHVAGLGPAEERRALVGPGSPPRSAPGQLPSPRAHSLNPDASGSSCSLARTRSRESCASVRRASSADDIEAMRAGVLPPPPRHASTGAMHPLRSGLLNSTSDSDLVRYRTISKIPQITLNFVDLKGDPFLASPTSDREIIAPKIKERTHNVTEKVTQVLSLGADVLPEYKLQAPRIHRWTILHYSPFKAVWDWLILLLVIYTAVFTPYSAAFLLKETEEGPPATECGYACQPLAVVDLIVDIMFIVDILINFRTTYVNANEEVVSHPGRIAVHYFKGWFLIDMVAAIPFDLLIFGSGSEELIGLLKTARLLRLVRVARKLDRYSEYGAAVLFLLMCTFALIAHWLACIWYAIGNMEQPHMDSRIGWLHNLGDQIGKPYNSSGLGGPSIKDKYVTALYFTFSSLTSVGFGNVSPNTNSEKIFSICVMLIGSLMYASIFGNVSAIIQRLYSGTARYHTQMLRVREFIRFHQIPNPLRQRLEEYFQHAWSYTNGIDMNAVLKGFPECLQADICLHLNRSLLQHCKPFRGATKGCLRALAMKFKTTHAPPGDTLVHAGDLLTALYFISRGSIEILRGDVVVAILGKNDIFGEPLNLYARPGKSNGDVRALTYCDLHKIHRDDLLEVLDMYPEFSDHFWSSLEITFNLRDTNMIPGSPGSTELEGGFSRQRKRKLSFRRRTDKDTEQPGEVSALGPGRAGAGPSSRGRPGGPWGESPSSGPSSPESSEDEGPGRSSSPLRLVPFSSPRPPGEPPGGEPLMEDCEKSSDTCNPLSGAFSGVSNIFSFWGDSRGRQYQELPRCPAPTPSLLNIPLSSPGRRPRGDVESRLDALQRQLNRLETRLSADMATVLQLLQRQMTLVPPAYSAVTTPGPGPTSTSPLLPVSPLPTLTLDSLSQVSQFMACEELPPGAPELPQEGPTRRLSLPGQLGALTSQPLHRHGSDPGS
Sequence of CYP2C9 (P11712 whole entry): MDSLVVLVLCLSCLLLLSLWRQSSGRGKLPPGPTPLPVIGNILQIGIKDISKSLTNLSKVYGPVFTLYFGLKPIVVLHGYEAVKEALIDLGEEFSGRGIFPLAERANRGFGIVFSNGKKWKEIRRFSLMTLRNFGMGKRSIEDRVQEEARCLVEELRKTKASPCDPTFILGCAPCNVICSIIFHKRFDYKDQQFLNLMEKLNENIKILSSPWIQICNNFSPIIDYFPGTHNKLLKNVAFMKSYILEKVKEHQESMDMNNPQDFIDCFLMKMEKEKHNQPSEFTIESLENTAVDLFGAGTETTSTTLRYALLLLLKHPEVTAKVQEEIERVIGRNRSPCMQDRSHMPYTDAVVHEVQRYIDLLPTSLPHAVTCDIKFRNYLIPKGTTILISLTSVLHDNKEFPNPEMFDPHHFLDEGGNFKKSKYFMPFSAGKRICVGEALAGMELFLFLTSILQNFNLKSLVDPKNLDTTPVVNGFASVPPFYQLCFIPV

SMILES: C[C@]1(O)CC[C@@H](CS(=O)(=O)c2ccc(-c3ncc(F)cc3F)c(F)c2)CC1 [CHMSA-03-A, cis-4-(((4-(3,5-difluoropyridin-2-yl)-3-fluorophenyl)sulfonyl)methyl)-1-methylcyclohexan-1-ol]
- solubility at 16 h [1]: 70 µg/mL (≈ 175 µM)
- hERG cardiac safety profile (in words) (hERG ion channel): particularly positive profile
- IC50 (hERG ion channel): > 100 µM
- IC50 (CYP2C9): 14.7 µM
- IC50 (CYP2D6): > 50 µM
- IC50 (CYP3A4): > 50 µM

SMILES: C[C@]1(O)CC[C@@H](CS(=O)(=O)c2ccc(-c3ccc(C#N)cc3F)cc2C(F)(F)F)CC1 [CHMSA-02-A, 2-fluoro-4′-(((cis-4-hydroxy-4-methylcyclohexyl)methyl)sulfonyl)-3′-(trifluoromethyl)-[1,1′-biphenyl]-4-carbonitrile]
- solubility at 16 h [1]: 20 µg/mL (≈ 43.9 µM)
- hERG cardiac safety profile (in words) (hERG ion channel): particularly positive profile
- IC50 (hERG ion channel): > 100 µM
- IC50 (CYP2C9): > 50 µM
- IC50 (CYP2D6): > 50 µM
- IC50 (CYP3A4): > 50 µM

SMILES: C[C@]1(O)CC[C@@H](CS(=O)(=O)c2ccc(-c3ccc(C#N)cc3F)cc2)CC1 [CHMSA-01-A, 2-fluoro-4′-(((cis-4-hydroxy-4-methylcyclohexyl)methyl)sulfonyl)-[1,1′-biphenyl]-4-carbonitrile]
- solubility at 16 h [1]: 10 µg/mL (≈ 25.8 µM)
- IC50 (hERG ion channel): 24 µM
- IC50 (CYP2C9): 39.4 µM
- IC50 (CYP2D6): > 50 µM
- IC50 (CYP3A4): > 50 µM

SMILES: C[C@]1(O)CC[C@H](NS(=O)(=O)c2ccc(-c3ccc(Cl)cc3C#N)cc2)CC1 [HMC-C-01-A, reference compound]
- Solubility ([1]; 16 hours): 0.06 mg/mL (≈ 148 µM)
- IC50 (CYP2C9): 21 µM
- IC50 (CYP2D6): 16.6 µM
- IC50 (CYP3A4): > 25 µM
